Converted amounts (≈) assume the structure as drawn. The source made the active and inactive calls. No cut-off for these calls is given here.
Legend:
[1] = test system: MV4-11; experiment: Antiproliferative activity against human MV4-11 cells assessed as reduction in cell viability measured for 3 days by cell counting assay; assay type: functional, cell-based; conditions: MV4-11, 72 h
[2] = Metabolic stability in human liver assessed as intrinsic clearance measured upto 60 min by UPLC-MS/MS analysis; assay type: ADME, tissue-based; conditions: read-out: CLH
[3] = test system: MV4-11; experiment: Induction of cell cycle arrest in human MV4-11 cells assessed as accumulation at G2/M phase at 0.1 to 10 uM incubated for 24 hrs by PI/RNase staining based flow cytometry analysis; assay type: functional; conditions: dose 0.1-10 µM
[4] = species: Homo sapiens; experiment: Inhibition of STE (unknown origin) at 1 uM in presence of ATP at Km concentration by Mobility shift assay relative to control
[5] = Metabolic stability in CD-1 mouse liver microsome assessed as intrinsic clearance measured upto 60 min by UPLC-MS/MS analysis; assay type: ADME; conditions: microsomes, 1 h
[6] = MRT in Sprague-Dawley rat at 5 mg/kg, iv; assay type: ADME, organism-based; conditions: in vivo
[7] = AUC (0 to infinity) in Sprague-Dawley rat at 5 mg/kg, iv; assay type: ADME, organism-based; parameters: time infinity, dose 5 mg/kg, route iv; conditions: in vivo
[8] = biological target: Menin/Histone-lysine N-methyltransferase MLL (Homo sapiens, UniProt O00255); experiment: Inhibition of Menin/fluorescein labeled MLL(4 to 43 residues) (unknown origin) protein protein interaction incubated for 1 hr by fluorescence polarization-based competitive binding assay
[9] = test system: MV4-11; experiment: Suppression of MEIS1 gene transcription in human MV4-11 cells xenografted in BALB/c nude mouse at 15 mg/kg, iv measured after 24 hrs by RT-PCR analysis; assay type: functional, organism-based
[10] = test system: MV4-11; experiment: Suppression of HOXA9 gene transcription in human MV4-11 cells xenografted in BALB/c nude mouse at 15 mg/kg, iv measured at 24 hrs by RT-PCR analysis; assay type: functional, organism-based
[11] = test system: MV4-11; experiment: Downregulation of HOXA9 gene in human MV4-11 cells incubated for 24 hrs by real-time PCR analysis; assay type: functional, cell-based; conditions: dose 0.1-10 µM, DDE = dose-dependent effect
[12] = Metabolic stability in Beagle dog liver microsome assessed as compound remaining measured after 60 min by UPLC-MS/MS analysis; assay type: ADME, Canis lupus familiaris; conditions: liver microsomes, read-out: Stability
[13] = AUC (0 to t) in Sprague-Dawley rat at 15 mg/kg, po; assay type: ADME, organism-based; parameters: dose 15 mg/kg, route po; conditions: in vivo
[14] = Volume of distribution at steady state in Sprague-Dawley rat at 15 mg/kg, po; assay type: ADME, organism-based; conditions: in vivo
[15] = Metabolic stability in human liver microsome assessed as half life measured upto 60 min by UPLC-MS/MS analysis; assay type: ADME; conditions: liver microsomes
[16] = Volume of distribution at steady state in Sprague-Dawley rat at 5 mg/kg, iv; assay type: ADME, organism-based; conditions: in vivo
[17] = biological target: Casein kinase I (Homo sapiens) (UniProt Q9HCP0+P78368+P48730+P49674+P48729); experiment: Inhibition of CK1 (unknown origin) at 1 uM in presence of ATP at Km concentration by Mobility shift assay relative to control; assay type: protein assay
[18] = Metabolic stability in Crab eating monkey liver microsome assessed as compound remaining measured after 60 min by UPLC-MS/MS analysis; assay type: ADME, Macaca fascicularis; conditions: cynomolgus monkey, liver microsomes, read-out: Stability
[19] = test system: MV4-11; experiment: Reversible differentiation arrest in human MV4-11 cells at 0.1 to 10 uM measured after 7 days by flow cytometric analysis; assay type: functional, cell-based; conditions: dose 0.1-10 µM, time 7.0 day
[20] = Cmax in Sprague-Dawley rat at 5 mg/kg, iv; assay type: ADME, organism-based; parameters: dose 5 mg/kg, route iv; conditions: in vivo
[21] = Tmax in Sprague-Dawley rat at 15 mg/kg, po; assay type: ADME, organism-based; conditions: in vivo
[22] = test system: MV4-11; experiment: Downregulation of MEISI gene in human MV4-11 cells incubated for 24 hrs by real-time PCR analysis; assay type: functional, cell-based; conditions: dose 0.1-10 µM, DDE = dose-dependent effect
[23] = Metabolic stability in CD-1 mouse liver microsome assessed as half life measured upto 60 min by UPLC-MS/MS analysis; assay type: ADME; conditions: liver microsomes
[24] = Cmax in Sprague-Dawley rat at 15 mg/kg, po; assay type: ADME, organism-based; parameters: dose 15 mg/kg, route po; conditions: in vivo
[25] = species: Homo sapiens; experiment: Inhibition of GAMK (unknown origin) at 1 uM in presence of ATP at Km concentration by Mobility shift assay relative to control
[26] = Metabolic stability in human liver microsome assessed as intrinsic clearance measured upto 60 min by UPLC-MS/MS analysis; assay type: ADME; conditions: microsomes, 1 h
[27] = Oral bioavailability in Sprague-Dawley rat at 15 mg/kg; assay type: ADME, organism-based; conditions: in vivo
[28] = AUC (0 to infinity) in Sprague-Dawley rat at 15 mg/kg, po; assay type: ADME, organism-based; parameters: time infinity, dose 15 mg/kg, route po; conditions: in vivo
[29] = Half life in Sprague-Dawley rat at 15 mg/kg, po; assay type: ADME, organism-based; conditions: in vivo
[30] = MRT in Sprague-Dawley rat at 15 mg/kg, po; assay type: ADME, organism-based; conditions: in vivo
[31] = test system: MV4-11; experiment: Induction of cell cycle arrest in human MV4-11 cells assessed as accumulation at S phase at 0.1 to 10 uM incubated for 24 hrs by PI/RNase staining based flow cytometry analysis; assay type: functional; conditions: dose 0.1-10 µM
[32] = Half life in Sprague-Dawley rat at 5 mg/kg, iv; assay type: ADME, organism-based; conditions: in vivo
[33] = Metabolic stability in Beagle dog liver assessed as intrinsic clearance measured upto 60 min by UPLC-MS/MS analysis; assay type: ADME, tissue-based, Canis lupus familiaris; conditions: read-out: CLH
[34] = Metabolic stability in Sprague-Dawley rat liver microsome assessed as compound remaining measured after 60 min by UPLC-MS/MS analysis; assay type: ADME; conditions: liver microsomes, read-out: Stability
[35] = test system: MV4-11; experiment: Antiproliferative activity against human MV4-11 cells harboring MLL-AF4 assessed as cell growth inhibition measured for 72 hrs by MTT assay; assay type: functional, cell-based; conditions: MV4-11, 72 h
[36] = species: Homo sapiens; experiment: Inhibition of TKL (unknown origin) at 1 uM in presence of ATP at Km concentration by Mobility shift assay relative to control
[37] = Solubility of compound in phosphate buffer at pH 7.4 by spectrophotometric analysis; assay type: physicochemical
[38] = Metabolic stability in Sprague-Dawley rat liver microsome assessed as half life measured upto 60 min by UPLC-MS/MS analysis; assay type: ADME; conditions: liver microsomes
[39] = Metabolic stability in Crab eating monkey liver microsome assessed as intrinsic clearance measured upto 60 min by UPLC-MS/MS analysis; assay type: ADME, Macaca fascicularis; conditions: cynomolgus monkey, microsomes, 1 h
[40] = test system: MV4-11; experiment: Induction of apoptosis in human MV4-11 cells incubated for 24 hrs by annexinV/PI staining based flow cytometry analysis; assay type: functional, cell-based; conditions: dose 0.1-10 µM, DDE = dose-dependent effect
[41] = species: Homo sapiens; experiment: Inhibition of AGC (unknown origin) at 1 uM in presence of ATP at Km concentration by Mobility shift assay relative to control
[42] = test system: MV4-11; experiment: Antitumor activity against human MV4-11 cells xenografted in BALB/c nude mouse assessed as tumor growth inhibition at 6 mg/kg, po administered every second day for 16 days by calipers analysis; assay type: functional; conditions: MV4-11, 384 h, time 16 day, read-out: TGI
[43] = Metabolic stability in Beagle dog liver microsome assessed as intrinsic clearance measured upto 60 min by UPLC-MS/MS analysis; assay type: ADME, Canis lupus familiaris; conditions: microsomes, 1 h
[44] = species: Homo sapiens; experiment: Inhibition of tyrosine kinase (unknown origin) at 1 uM in presence of ATP at Km concentration by Mobility shift assay relative to control
[45] = test system: MV4-11; experiment: Antitumor activity against human MV4-11 cells xenografted in BALB/c nude mouse assessed as tumor growth inhibition at 30 mg/kg, po administered every second day for 16 days by calipers analysis; assay type: functional; conditions: MV4-11, 384 h, time 16 day, read-out: TGI
[46] = Metabolic stability in Beagle dog liver microsome assessed as half life measured upto 60 min by UPLC-MS/MS analysis; assay type: ADME, Canis lupus familiaris; conditions: liver microsomes

Sequence of Menin/Histone-lysine N-methyltransferase MLL (O00255 whole entry, the tested form may be a part): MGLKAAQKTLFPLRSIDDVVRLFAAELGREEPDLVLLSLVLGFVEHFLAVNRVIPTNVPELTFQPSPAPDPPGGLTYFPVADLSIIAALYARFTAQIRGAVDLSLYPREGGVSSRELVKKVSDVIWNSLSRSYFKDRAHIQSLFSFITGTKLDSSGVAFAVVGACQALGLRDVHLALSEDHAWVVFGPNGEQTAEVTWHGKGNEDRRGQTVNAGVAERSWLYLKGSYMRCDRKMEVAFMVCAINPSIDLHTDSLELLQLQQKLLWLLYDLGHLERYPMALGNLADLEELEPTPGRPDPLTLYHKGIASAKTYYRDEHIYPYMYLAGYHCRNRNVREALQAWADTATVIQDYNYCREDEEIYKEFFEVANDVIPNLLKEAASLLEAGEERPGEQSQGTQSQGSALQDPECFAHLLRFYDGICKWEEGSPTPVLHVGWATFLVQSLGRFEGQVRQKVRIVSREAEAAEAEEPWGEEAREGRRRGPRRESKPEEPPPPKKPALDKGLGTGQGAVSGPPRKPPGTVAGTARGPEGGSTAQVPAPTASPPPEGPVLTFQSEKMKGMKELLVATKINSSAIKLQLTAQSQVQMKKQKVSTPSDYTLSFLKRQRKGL
Sequence of Menin/Histone-lysine N-methyltransferase MLL (Q03164 1-2718 partner limits assumed): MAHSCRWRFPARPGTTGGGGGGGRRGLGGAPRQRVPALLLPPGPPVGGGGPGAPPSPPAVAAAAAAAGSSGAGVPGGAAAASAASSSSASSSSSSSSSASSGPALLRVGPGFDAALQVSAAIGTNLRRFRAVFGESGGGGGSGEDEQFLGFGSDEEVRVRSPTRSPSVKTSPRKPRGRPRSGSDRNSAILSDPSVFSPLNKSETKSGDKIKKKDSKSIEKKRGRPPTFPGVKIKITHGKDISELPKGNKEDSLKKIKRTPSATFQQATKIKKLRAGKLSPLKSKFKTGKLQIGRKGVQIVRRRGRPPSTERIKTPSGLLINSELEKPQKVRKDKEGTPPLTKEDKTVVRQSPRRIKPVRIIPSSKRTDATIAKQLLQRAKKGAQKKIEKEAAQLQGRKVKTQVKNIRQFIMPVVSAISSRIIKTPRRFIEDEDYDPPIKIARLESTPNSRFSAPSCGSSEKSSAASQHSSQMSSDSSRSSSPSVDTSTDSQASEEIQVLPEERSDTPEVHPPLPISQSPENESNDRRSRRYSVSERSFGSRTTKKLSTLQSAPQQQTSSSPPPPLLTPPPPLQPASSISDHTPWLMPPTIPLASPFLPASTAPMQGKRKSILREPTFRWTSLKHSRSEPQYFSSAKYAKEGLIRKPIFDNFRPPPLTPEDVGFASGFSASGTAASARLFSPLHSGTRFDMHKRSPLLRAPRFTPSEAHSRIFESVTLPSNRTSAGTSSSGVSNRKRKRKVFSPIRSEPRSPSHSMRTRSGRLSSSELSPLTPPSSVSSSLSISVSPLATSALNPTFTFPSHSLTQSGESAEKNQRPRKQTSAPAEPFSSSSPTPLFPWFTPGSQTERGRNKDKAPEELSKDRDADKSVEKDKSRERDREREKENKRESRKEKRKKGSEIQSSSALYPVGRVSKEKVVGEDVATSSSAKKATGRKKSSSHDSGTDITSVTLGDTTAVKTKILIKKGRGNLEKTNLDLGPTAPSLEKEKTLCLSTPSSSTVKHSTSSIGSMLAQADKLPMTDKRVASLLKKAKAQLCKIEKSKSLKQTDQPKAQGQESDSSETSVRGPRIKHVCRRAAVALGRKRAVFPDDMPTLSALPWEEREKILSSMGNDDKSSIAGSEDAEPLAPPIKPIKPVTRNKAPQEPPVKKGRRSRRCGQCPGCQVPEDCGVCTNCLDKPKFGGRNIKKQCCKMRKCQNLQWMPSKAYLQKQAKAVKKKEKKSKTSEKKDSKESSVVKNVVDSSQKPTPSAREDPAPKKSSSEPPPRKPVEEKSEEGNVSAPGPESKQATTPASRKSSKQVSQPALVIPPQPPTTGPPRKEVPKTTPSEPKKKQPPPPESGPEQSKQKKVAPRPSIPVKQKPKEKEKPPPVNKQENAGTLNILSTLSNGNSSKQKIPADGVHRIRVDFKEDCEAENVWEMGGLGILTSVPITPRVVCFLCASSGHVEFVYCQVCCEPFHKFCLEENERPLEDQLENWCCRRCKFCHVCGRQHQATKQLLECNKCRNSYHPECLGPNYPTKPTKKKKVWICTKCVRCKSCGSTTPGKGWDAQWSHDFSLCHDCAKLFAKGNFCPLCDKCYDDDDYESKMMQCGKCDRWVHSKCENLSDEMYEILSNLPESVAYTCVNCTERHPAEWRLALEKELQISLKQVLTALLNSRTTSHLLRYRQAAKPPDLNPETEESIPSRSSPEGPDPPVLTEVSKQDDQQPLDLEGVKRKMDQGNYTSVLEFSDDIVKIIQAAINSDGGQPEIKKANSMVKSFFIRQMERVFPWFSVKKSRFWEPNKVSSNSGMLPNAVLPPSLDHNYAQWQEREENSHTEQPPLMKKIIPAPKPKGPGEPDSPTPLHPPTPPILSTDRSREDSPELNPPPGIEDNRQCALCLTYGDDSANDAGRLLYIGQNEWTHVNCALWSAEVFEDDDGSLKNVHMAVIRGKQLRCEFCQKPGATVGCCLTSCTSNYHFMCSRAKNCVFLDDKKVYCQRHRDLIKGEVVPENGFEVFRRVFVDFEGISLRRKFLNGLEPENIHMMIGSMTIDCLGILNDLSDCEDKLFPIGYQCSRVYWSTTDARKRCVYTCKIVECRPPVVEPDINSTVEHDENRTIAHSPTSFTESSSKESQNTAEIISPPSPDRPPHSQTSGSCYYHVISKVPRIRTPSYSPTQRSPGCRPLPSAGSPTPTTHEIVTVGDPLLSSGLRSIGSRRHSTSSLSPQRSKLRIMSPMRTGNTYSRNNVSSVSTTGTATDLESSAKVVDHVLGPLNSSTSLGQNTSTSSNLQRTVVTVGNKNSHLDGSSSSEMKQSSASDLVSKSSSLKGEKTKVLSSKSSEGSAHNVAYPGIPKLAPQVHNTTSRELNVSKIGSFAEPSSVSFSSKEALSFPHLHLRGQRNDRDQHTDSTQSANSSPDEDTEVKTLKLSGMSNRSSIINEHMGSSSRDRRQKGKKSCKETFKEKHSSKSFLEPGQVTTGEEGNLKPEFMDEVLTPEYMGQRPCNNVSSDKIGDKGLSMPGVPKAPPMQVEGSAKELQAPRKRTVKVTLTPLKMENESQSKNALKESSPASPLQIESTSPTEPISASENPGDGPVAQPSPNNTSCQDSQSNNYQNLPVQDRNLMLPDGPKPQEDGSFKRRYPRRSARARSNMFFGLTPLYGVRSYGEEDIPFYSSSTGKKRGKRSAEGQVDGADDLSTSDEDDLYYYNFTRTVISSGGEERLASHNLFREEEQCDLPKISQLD
Sequence of Menin/Histone-lysine N-methyltransferase MLL (Q03164 2719-3969 partner limits assumed): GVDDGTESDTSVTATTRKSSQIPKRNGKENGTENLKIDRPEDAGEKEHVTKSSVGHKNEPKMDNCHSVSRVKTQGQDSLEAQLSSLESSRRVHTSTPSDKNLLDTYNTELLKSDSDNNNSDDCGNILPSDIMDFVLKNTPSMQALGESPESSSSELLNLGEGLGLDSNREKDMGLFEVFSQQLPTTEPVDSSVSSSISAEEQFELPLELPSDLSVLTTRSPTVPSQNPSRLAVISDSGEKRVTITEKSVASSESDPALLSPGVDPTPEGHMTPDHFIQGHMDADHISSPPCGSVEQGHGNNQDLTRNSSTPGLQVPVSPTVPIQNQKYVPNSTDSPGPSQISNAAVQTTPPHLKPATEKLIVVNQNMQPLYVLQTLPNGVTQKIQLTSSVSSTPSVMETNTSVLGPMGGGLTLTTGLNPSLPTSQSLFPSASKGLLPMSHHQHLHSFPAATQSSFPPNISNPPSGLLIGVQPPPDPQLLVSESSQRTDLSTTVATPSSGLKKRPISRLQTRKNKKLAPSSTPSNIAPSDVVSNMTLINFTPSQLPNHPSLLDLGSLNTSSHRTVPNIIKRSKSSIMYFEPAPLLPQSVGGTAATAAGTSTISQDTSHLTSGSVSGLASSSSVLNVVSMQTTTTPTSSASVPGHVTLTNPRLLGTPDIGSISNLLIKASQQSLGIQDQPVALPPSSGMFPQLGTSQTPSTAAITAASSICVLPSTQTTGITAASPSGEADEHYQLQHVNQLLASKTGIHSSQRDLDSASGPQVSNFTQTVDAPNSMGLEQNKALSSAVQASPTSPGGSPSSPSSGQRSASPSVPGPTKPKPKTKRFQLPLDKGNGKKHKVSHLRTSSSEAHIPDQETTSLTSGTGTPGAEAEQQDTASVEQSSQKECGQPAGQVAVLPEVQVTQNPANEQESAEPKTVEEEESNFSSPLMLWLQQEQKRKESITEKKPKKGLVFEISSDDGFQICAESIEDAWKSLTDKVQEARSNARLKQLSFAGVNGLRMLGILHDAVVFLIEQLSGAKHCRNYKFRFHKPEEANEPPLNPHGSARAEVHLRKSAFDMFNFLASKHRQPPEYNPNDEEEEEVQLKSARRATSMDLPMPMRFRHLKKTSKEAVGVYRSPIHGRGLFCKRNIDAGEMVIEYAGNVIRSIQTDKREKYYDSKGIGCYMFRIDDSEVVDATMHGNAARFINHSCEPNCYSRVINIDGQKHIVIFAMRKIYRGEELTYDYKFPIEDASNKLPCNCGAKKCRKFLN

CN(C)CCOc1ccc2ncnc(NC3CCN(CC4CN(c5ccc(S(=O)(=O)C6CC6)cc5)C4)CC3)c2n1
IC50 [1]: 360 nM
CLint scaled [2]: 8 mL/min/kg
Activity [3]: Active
inhibition [4]: < 25%
CLint [5]: 7.2 µL/min/mg
MRT [6]: 7.1 h
AUC(0-inf) [7]: 2500 ng·h/mL
IC50 [8]: 7 nM
Activity [9]: Active
Activity [10]: Active
Activity [11]: Dde
remaining at 1 h [12]: 65%
AUC(0-t) [13]: 864 ng·h/mL
Vdss [14]: 23 L/kg
half-life [15]: 3.2 h
Vdss [16]: 49.3 L/kg
inhibition [17]: < 25%
remaining at 1 h [18]: 52%
Activity [19]: Active
Cmax [20]: 1190 ng/mL
Tmax [21]: 7.3 h
Activity [22]: Dde
half-life [23]: 3.38 h
Cmax [24]: 56.7 ng/mL
inhibition [25]: < 25%
CLint [26]: 8.4 µL/min/mg
bioavailability [27]: 16.9%
AUC(0-inf) [28]: 1480 ng·h/mL
half-life [29]: 15.5 h
MRT [30]: 12 h
Activity [31]: Active
half-life [32]: 17.5 h
CLint scaled [33]: 20 mL/min/kg
remaining at 1 h [34]: 77%
IC50 [35]: 300 nM
inhibition [36]: < 25%
solubility [37]: 398 µg/mL (≈ 704 µM)
half-life [38]: 2.75 h
CLint [39]: 22 µL/min/mg
Activity [40]: Dde
inhibition [41]: < 25%
inhibition in vivo at 6 mg/kg [42]: 64%
CLint [43]: 13.9 µL/min/mg
inhibition [44]: < 25%
inhibition in vivo at 30 mg/kg [45]: 97%
half-life [46]: 1.7 h

Source: ChEMBL document CHEMBL5104196, “Discovery of Novel, Potent, and Selective Small-Molecule Menin-Mixed Lineage Leukemia Interaction Inhibitors through Attempting Introduction of Hydrophilic Groups” (J Med Chem, 2022)
